The text below walks through data of patent US12274726B2, “Enteric aerobization therapy” (LPOXY THERAPEUTICS, INC., priority 2021, dated 2025).

The test system of series [1] is Clostridioides difficile ATCC 43255. The following applies: for cure rate: mouse CDI model, 14 days follow-up; for survival: treatment study day 0 to 4, followed for 14 days after inoculum, 10 mice per group.
Excerpt: Because of the more humanlike characteristics for mouse CDI model, it was chosen to evaluate enteric aerobization.
Administration of enteric aerobization therapies presented several challenges with the mouse model. Administration of experimental compounds in rodents is normally performed via gastric gavage using a solution of the test article. However, this could not be accomplished with enteric aerobization therapy because dissolving the mixture prior to administration would result in premature loss of oxygen effervescence before entering the intestine. Further, there is uncertainty that rodents reliably pass enteric coated capsules or tablets from the stomach to the intestine. […] Finally, the small capsule or tablet sizes required for rodent administration severely limits dosages.
Thirty C57BL/6 female mice (18-22 g) fitted with duodenal catheters externalized and fitted with access button ports were purchased from Charles River Laboratories and singly housed in a temperature and humidity-controlled room with a 12-hour light cycle. The mice were divided into 3 groups of 10.
The mice were pretreated with an antibiotic cocktail in their drinking water for 8 consecutive days. This antibiotic cocktail was composed of 1% glucose, 500 mcg/mL kanamycin, 44 mcg/mL gentamicin, 1062.5 units per milliliter colistin, 269 mcg/mL metronidazole, 156 mcg/mL ciprofloxacin, 100 mcg/mL ampicillin, and 56 mcg/mL vancomycin. The antibiotic cocktail and drinking water were replaced every 2 to 3 days. Five days prior to infection the antibiotic water was removed and normal drinking water was provided to the animals. Three days prior to infection the animals received a single dose of clindamycin 10 mg per kilogram via oral administration in a volume of 10 mL per kilogram.
On study Day 0 mice were inoculated with the bacterial suspension of 5×10^5 CFU Clostridioides difficile ATCC 43255 via oral gavage. Eight hours after inoculation administration of vehicle, antibiotic control, and test article was initiated according to the following. The vehicle a.k.a. infection control group of 10 mice received 80 μL per hour 100% pure nitrogen gas via duodenal catheter. The infection control group of 10 mice received 50 mg/kg vancomycin via oral gavage once daily. […] Administration was continued from study day 0 to study day 4, a total of 5 days. The mice were followed for 14 days after inoculum recording daily weights and clinical observations. Animals that appeared severely moribund were euthanized. At the end of the study all animals were humanely euthanized.
For series [2] the following is noted: up to maximum bolus tested, 200 microliters every 6 hours (8 mL/kg per bolus; 32 mL/kg/day). As to the method: In a separate experiment using the above conditions the tolerance of bolus injection of 100% oxygen gas was tested.

In series [1], `CN[C@H](CC(C)C)C(=O)N[C@H]1C(=O)N[C@@H](CC(N)=O)C(=O)N[C@H]2C(=O)N[C@H]3C(=O)N[C@H](C(=O)N[C@H](C(=O)O)c4cc(O)cc(O)c4-c4cc3ccc4O)[C@H](O)c3ccc(c(Cl)c3)Oc3cc2cc(c3O[C@@H]2O[C@H](CO)[C@@H](O)[C@H](O)[C@H]2O[C@H]2C[C@](C)(N)[C@H](O)[C@H](C)O2)Oc2ccc(cc2Cl)[C@H]1O` [vancomycin, reference compound] displayed a cure rate of 30% and a survival of 100%.
In the case of `O=O` [EAT, oxygen], the “clinical severity (total clinical score) compared to infection control group” value in series [1] (FIG. 9) is “mildly ill”. The “animals showing clinical signs of infection/recurrence in the 2nd week after inoculation, after treatment” value in series [1] (days 8-14) is reported as “no recurrent infections”. In addition, the “adverse effects due to gas infusion” value in series [1] (efficacy experiments, 3.2 mL/kg/hr, 76.8 mL/kg/day) is reported as “no adverse effects”. In series [1], this molecule had a cure rate of 100% and a survival of 100%. Also, the “adverse effects of bolus injection” value in series [2] is listed as “No adverse effects were observed”.
